Results from US20090124539A1, “Methods of treating infection” (priority 2007, published 2009).
In brackets after ≈: the same amount, converted by molar mass. Read-outs that look alike come from different tables or passages of the source.

Key:
[1] = tested on: Enterococcus faecalis; settings: quality control range for Enterococcus faecalis ATCC 29212 (# 101); cited from earlier work
[2] = tested on: Streptococcus pneumoniae; assay: MIC, broth microdilution (CLSI); format: cell-based; settings: Streptococcus pneumoniae, read-out: MIC
Experimental: (§1) The solvent for all of the compounds was deionized water (DIW), and all of the compounds dissolved in the solvent. The stock solutions were allowed to stand in DIW for one hour at room temperature prior to testing to allow time for auto-sterilization.
(§2) The test organisms were originally received from clinical sources, or from the American Type Culture Collection. When received, the organisms were sub-cultured onto an appropriate agar medium. Following incubation, colonies were harvested from these plates and cell suspensions prepared and frozen at −80° C. On the day prior to assay, a frozen vial of each culture was thawed and the contents were streaked for isolation onto either Tryptic Soy Agar (Becton Dickinson, Sparks, Md.) or Tryptic Soy Agar (Enhanced Hemolysis; Becton Dickinson) supplemented with 5% sheep blood for streptococci. The agar plates were incubated overnight at 35° C. Staphylococcus aureus ATCC 29213 and Enterococcus faecalis ATCC 29212 were included as quality control isolates in the assay.
(§3) The test medium for the broth microdilution testing was Mueller Hinton II broth (MHB II; BBL# 212322, Lot # 6024003, Becton Dickinson). The broth was prepared at 1.05× normal weight/volume to offset the 5% volume of the drug solution in the final test plates.
For streptococci, lysed horse blood (Lot # H88621; Cleveland Scientific, Bath, Ohio) was added to the MHB II at a final concentration of 2%. […]
(§4) MIC values were determined using a broth microdilution method as recommended by the Clinical and Laboratory Standards Institute (Clinical and Laboratory Standards Institute^a. Methods for Dilution Antimicrobial Susceptibility Tests for Bacteria That Grow Aerobically; Approved Standard-Seventh Edition. Clinical and Laboratory Standards Institute document M7-A7 [ISBN 1-56238-587-9]. Clinical and Laboratory Standards Institute, 940 West Valley Road, Suite 1400, Wayne, Pa. 19087-1898 USA, 2006). Automated liquid handlers (Multidrop 384, Labsystems, Helsinki, Finland; Biomek 2000 and Multimek 96, Beckman Coulter, Fullerton Calif.) were used to conduct serial dilutions and make liquid transfers.
(§5) Wells of two standard 96-well microdilution plates (Falcon 3918; Becton Dickinson) were filled with 150 μL of […] using the Multidrop 384. These plates were used to prepare the drug “mother plates” that provided the serial drug dilutions for replicate “daughter plates”. The Biomek 2000 was used to transfer 150 μl of each stock solution from the wells of column 1 of a deep well plate to the corresponding wells in column 1 of the mother plate and to make eleven 2-fold serial dilutions in the mother plates. The wells of column 12 contained no drug and were the organism growth control wells. Each mother plate has the capacity to create a total of 12 daughter plates.
(§6) The daughter plates were loaded with 180 μL of one of the media described above using the Multidrop 384. The wells of the daughter plates ultimately contained 180 μL of MHB II, 10 μL of drug solution, and 10 μL of bacterial inoculum prepared in broth appropriate to the test organism (1.05×). The daughter plates were prepared on the Multimek 96 instrument, which transferred 10 μL of drug solution from each well of the mother plate to each corresponding well of each daughter plate in a single step.
Standardized inoculum of each organism was prepared following Clinical and Laboratory Standards Institute (Clinical and Laboratory Standards Institute^b. Performance Standards for Antimicrobial Susceptibility Testing; Sixteenth Informational Supplement. CLSI document M100-S16 [ISBN 1-56238-588-7]. Clinical and Laboratory Standards Institute, 940 West Valley Road, Suite 1400, Wayne, Pa. 19087-1898 USA, 2006) methods. The inoculum for each organism was dispensed into sterile reservoirs divided by length (Beckman Coulter), and the Biomek 2000 was used to inoculate the plates. […]

[3] = tested on: Enterococcus faecalis; assay: MIC, broth microdilution (CLSI); format: cell-based; settings: Enterococcus faecalis, read-out: MIC
Experimental: as §1, §2, §3
(§7) CLSI guidelines recommend that Mueller-Hinton II broth be adjusted to contain 50 mg/L of Ca^++ ions for proper daptomycin MIC results. Since Mueller-Hinton II broth has already been adjusted by the manufacturer to contain approximately 25 mg/L of Ca^++ ions, an additional 25 mg/L of Ca^++ ions was adjusted with 10 mg/mL of CaCl2.2H2O (Lot# 084K0215; Sigma-Aldrich) added at a rate of 0.1 mL/L of broth, for each desired increment of 1 mg/L. This supplemented Mueller-Hinton II broth was used only in wells containing daptomycin.
as §4, §5
as §6, with “step. […]” for “step.”

[4] = tested on: Staphylococcus epidermidis; assay: MIC, broth microdilution (CLSI); format: cell-based; settings: read-out: MIC
Experimental: as §1, §2, §3, §7, §4, §5
as §6, with “step. […]” for “step.”

[5] = tested on: Staphylococcus aureus; settings: quality control range for Staphylococcus aureus ATCC 29213 (# 100); cited from earlier work
[6] = tested on: Streptococcus pyogenes; assay: MIC, broth microdilution (CLSI); format: cell-based
Experimental: as §1, §2, §3
For streptococci, lysed horse blood (Lot # H88621; Cleveland Scientific, Bath, Ohio) was added to the MHB II at a final concentration of 2%.
as §7, §4, §5
as §6, with “step. […]” for “step.”

[7] = tested on: Staphylococcus aureus; assay: MIC, broth microdilution (CLSI); format: cell-based; settings: Staphylococcus aureus, read-out: MIC
Experimental: (§8) The stock solutions were allowed to stand in DIW for one hour at room temperature prior to testing to allow time for auto-sterilization.
as §2, §3, §7, §4, §5, §6

[8] = tested on: Enterococcus faecium; assay: MIC, broth microdilution (CLSI); format: cell-based; settings: Enterococcus faecium, read-out: MIC
Experimental: as §8, §2, §3, §7, §4, §5, §6

[9] = Streptococcus pneumoniae Micromyx # 374, Wild type
[10] = Streptococcus pneumoniae Micromyx # 927, mef(A)
[11] = Streptococcus pneumoniae Micromyx # 928, erm(B)
[12] = ATCC29212, Enterococcus faecalis Micromyx # 101, VSE, CLSI QC strain (ATCC 29212)
[13] = Enterococcus faecalis Micromyx # 413, LZD^R from res. dev. or other
[14] = Enterococcus faecalis Micromyx # 486, Van A
[15] = Enterococcus faecalis Micromyx # 1088, Van B
[16] = Staphylococcus epidermidis Micromyx # 108, MRSE
[17] = Staphylococcus epidermidis Micromyx # 835, MSSE
[18] = Streptococcus pyogenes Micromyx # 942, macrolide^R
[19] = Streptococcus pyogenes Micromyx # 985, Susceptible, read-out: MIC
[20] = ATCC 29213 / MSSA, Staphylococcus aureus Micromyx # 100, MSSA, CLSI QC strain (ATCC 29213)
[21] = MRSA, Staphylococcus aureus Micromyx # 1004, MRSA, FA^R
[22] = MRSA, Staphylococcus aureus Micromyx # 1730, Community-acquired MRSA
[23] = MSSA, Staphylococcus aureus Micromyx # 1002, MSSA, macrolide^R
[24] = Staphylococcus aureus Micromyx # 106, RA^R
[25] = Staphylococcus aureus Micromyx # 1016, FA^R
[26] = Staphylococcus aureus Micromyx # 1651, LZD^R clinical isolate
[27] = Staphylococcus aureus Micromyx # 1727, GM^R
[28] = Staphylococcus aureus Micromyx # 1731, CHL^R
[29] = VISA, Staphylococcus aureus Micromyx # 1723, VISA
[30] = Enterococcus faecium Micromyx # 750, Van^S
[31] = Enterococcus faecium Micromyx # 752, Van A
[32] = Enterococcus faecium Micromyx # 1120, Van B
[33] = Enterococcus faecium Micromyx # 1721, DAP^R

| SMILES | MIC, CLSI Recommended Range [1] [µg/mL] | MIC [2, 9] [µg/mL] | MIC [2, 10] [µg/mL] | MIC [2, 11] [µg/mL] | MIC [3, 12] [µg/mL] | MIC [3, 13] [µg/mL] | MIC [3, 14] [µg/mL] | MIC [3, 15] [µg/mL] | MIC [4, 16] [µg/mL] | MIC [4, 17] [µg/mL] | MIC, CLSI Recommended Range [5] [µg/mL] | MIC [6, 18] | MIC [6, 19] [µg/mL] | MIC [7, 20] [µg/mL] | MIC [7, 21] [µg/mL] | MIC [7, 22] [µg/mL] | MIC [7, 23] [µg/mL] | MIC [7, 24] [µg/mL] | MIC [7, 25] [µg/mL] | MIC [7, 26] [µg/mL] | also measured |
| --- | --- | --- | --- | --- | --- | --- | --- | --- | --- | --- | --- | --- | --- | --- | --- | --- | --- | --- | --- | --- | --- |
| CC(=O)NC[C@H]1CN(c2ccc(N3CCOCC3)c(F)c2)C(=O)O1 [Linezolid, linezolid] | 1 to 4 | 4 (≈ 11.9 µM) | 2 (≈ 5.93 µM) | 2 (≈ 5.93 µM) | 8 (≈ 23.7 µM) | 64 (≈ 190 µM) | 4 (≈ 11.9 µM) | 4 (≈ 11.9 µM) | 4 (≈ 11.9 µM) | 4 (≈ 11.9 µM) | 1 to 4 | 4 µg/mL (≈ 11.9 µM) | 4 (≈ 11.9 µM) | 8 (≈ 23.7 µM) | 4 (≈ 11.9 µM) | 8 (≈ 23.7 µM) | 4 (≈ 11.9 µM) | 4 (≈ 11.9 µM) | 8 (≈ 23.7 µM) | 64 (≈ 190 µM) | MIC [7, 27]: 4 µg/mL (≈ 11.9 µM); MIC [7, 28]: 8 µg/mL (≈ 23.7 µM); MIC [7, 29]: 4 µg/mL (≈ 11.9 µM); MIC [8, 30]: 4 µg/mL (≈ 11.9 µM); MIC [8, 31]: 4 µg/mL (≈ 11.9 µM); MIC [8, 32]: 4 µg/mL (≈ 11.9 µM); MIC [8, 33]: 2 µg/mL (≈ 5.93 µM) |
| CCCCCCCCCC(=O)N[C@@H](Cc1c[nH]c2ccccc12)C(=O)N[C@H](CC(N)=O)C(=O)N[C@@H](CC(=O)O)C(=O)N[C@@H]1C(=O)NCC(=O)N[C@@H](CCCN)C(=O)N[C@@H](CC(=O)O)C(=O)N[C@H](C)C(=O)N[C@@H](CC(=O)O)C(=O)NCC(=O)N[C@H](CO)C(=O)N[C@@H]([C@H](C)CC(=O)O)C(=O)N[C@@H](CC(=O)c2ccccc2N)C(=O)O[C@@H]1C [Daptomycin] | 1 to 4 | ≤ 0.12 | ≤ 0.12 | ≤ 0.12 | 1 (≈ 0.617 µM) | 0.5 (≈ 0.309 µM) | 0.5 (≈ 0.309 µM) | 1 (≈ 0.617 µM) | 0.5 (≈ 0.309 µM) | 0.5 (≈ 0.309 µM) | 0.25 to 1 | ≦0.12 μg/mL | ≤ 0.12 | 0.5 (≈ 0.309 µM) | 0.25 (≈ 0.154 µM) | 0.5 (≈ 0.309 µM) | 0.5 (≈ 0.309 µM) | 0.5 (≈ 0.309 µM) | 0.25 (≈ 0.154 µM) | 0.5 (≈ 0.309 µM) | MIC ([2]; Streptococcus pneumoniae Micromyx # 379, parC, gyrA, gyrB): 0.25 µg/mL (≈ 0.154 µM); MIC [7, 27]: 0.25 µg/mL (≈ 0.154 µM); MIC [7, 28]: 0.25 µg/mL (≈ 0.154 µM); MIC [7, 29]: 1 µg/mL (≈ 0.617 µM); MIC [8, 30]: ≤ 0.12 µg/mL; MIC [8, 31]: 2 µg/mL (≈ 1.23 µM); MIC [8, 32]: 2 µg/mL (≈ 1.23 µM); MIC [8, 33]: 8 µg/mL (≈ 4.94 µM) |
